{"source": "patent US8207133B1", "about": "“Peptides that down regulate the activity of plasma membrane transporters including sodium-D-glucose cotransporter SGLT1” (Julius-Maximilians-Universitat Wurzburg, priority 2005, dated 2012)", "key": {"[1]": {"test_system": "RS1 at the TGN in LLC-PK1 cells", "experiment": "Immunostaining of RS1 in subconfluent LLC-PK1 cells after brefeldin A", "type": "cell-based", "details": "2 μg/ml brefeldin A, 1 min or 5 min", "description": "For immunostaining, LLC-PK1 cells were grown on coverslips to about 50% confluence. The cells were washed twice with washing buffer (5 mM 3-(N-morpholino)propanesulfonic acid-NaOH, pH 7.4, 100 mM NaCl, 3 mM KCl, 2 mM CaCl2, and 1 mM MgCl2), fixed for 12 min with 4% (w/v) paraformaldehyde diluted in washing buffer, and washed twice again. Free aldehyde groups were quenched by 10 min incubation with washing buffer containing 40 mM glycine. For immunoreactions, washed cells were permeabilized by a 10-min incubation with washing buffer containing 0.25% (w/v) TritonX-114, and incubated over night at 4° C. with primary antibodies diluted in washing buffer. The dilutions of primary antibodies were as follows: rabbit-anti-RS1-Ab 1:50 (Valentin (2000), Biochim. Biophys. Acta, 1468, 367-380); QIS30 directed against SGLT1 1:400 (Kipp (2003), Am. J. Physiol., 285, C737-C749), sheep-anti-TGN46 1:125 (from Diagnostic International, Schriesheim, Germany). After incubation with primary antibodies, cells were washed 3 times with washing buffer and incubated for 1 h at room temperature with fluorochrome linked secondary antibodies (goat antibody against rabbit IgG linked to AlexaFluor 488 Molecular Probes, Leiden, Netherlands, and donkey anti-sheep IgG coupled to Cy2 from Dianova, Hamburg, Germany). […]"}, "[2]": {"test_system": "hSGLT1", "experiment": "hSGLT1 expressed [14C]AMG uptake in Xenopus oocytes after injection of hRS1 protein or hRS1 peptides", "type": "cell-based, human"}, "[3]": {"molecular_target": "T1, hPEPT1 (Homo sapiens, UniProt P46059)", "T1 construct": "expressed in transfected cells; host or cells: Xenopus laevis oocytes (cRNA injection, 30 ng per oocyte)", "T1 sequence (P46059 1-708)": "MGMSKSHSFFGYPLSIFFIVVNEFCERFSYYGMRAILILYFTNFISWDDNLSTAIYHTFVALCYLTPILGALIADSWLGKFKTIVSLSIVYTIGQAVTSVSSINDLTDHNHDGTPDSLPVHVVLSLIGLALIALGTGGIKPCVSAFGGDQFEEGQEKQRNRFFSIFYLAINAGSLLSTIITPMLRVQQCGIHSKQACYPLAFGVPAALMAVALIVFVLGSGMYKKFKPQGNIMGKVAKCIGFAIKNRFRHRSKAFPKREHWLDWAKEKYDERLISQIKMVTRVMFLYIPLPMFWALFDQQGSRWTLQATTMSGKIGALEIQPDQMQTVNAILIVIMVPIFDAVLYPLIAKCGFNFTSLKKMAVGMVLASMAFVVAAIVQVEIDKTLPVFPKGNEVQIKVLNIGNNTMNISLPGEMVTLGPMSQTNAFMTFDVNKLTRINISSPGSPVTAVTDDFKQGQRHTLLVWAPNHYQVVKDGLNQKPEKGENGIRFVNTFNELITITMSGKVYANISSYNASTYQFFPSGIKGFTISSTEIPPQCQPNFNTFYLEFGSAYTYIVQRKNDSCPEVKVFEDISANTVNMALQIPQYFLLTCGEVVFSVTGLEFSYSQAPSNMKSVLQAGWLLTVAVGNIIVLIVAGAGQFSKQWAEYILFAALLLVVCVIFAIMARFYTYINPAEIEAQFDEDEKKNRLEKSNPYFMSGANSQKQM", "experiment": "Electrogenic peptide transport by hPEPT1 in oocytes, two-electrode voltage clamp", "type": "cell-based", "description": "The oocytes were incubated for three days at 16° C. in ORi buffer (in mM: 5 HEPES-Tris, pH 7.4, 100 NaCl, 3 KCl, 2 CaCl2, and 1 MgCl2). […] The oocytes were superfused with Ori buffer titrated to pH 6.5, the membrane potential of the oocytes was clamped to −40 mV, and inward current induced by superfusion with Ori buffer (pH 6.5) containing 5 mM of a control dipeptide or 5 mM of the tested tripeptide was measured."}, "[4]": {"test_system": "hSGLT1", "experiment": "[14C]AMG uptake after incubating oocytes expressing hSGLT1 with or without hPEPT1 with tripeptide in the medium", "type": "cell-based, human", "details": "pH 6.5", "description": "In a different experimental setup, oocytes were injected with SGLT1 cRNA (2.5 ng per oocyte) or with hSGLT1 cRNA (2.5 ng per oocyte) plus hPEPT1 cRNA (10 ng per oocyte) and the oocytes were incubated 3 days for expression. Thereafter the oocytes were incubated 30 min with Ori buffer adjusted to pH 6.5 or with Ori buffer adjusted to pH 6.5 containing 3 mM of the tested tripeptide. Thereafter oocytes were washed with Ori buffer (pH 7.4) and uptake of [^14C]AMG was measured.\nIt was furthermore elucidated whether in human small intestine the expression of hSGLT1 can be inhibited by oral ingestion of QCP. […] Thereafter the oocytes were washed with neutral Ori buffer and the hSGLT1 expressed uptake of 50 μM [^14C]AMG was measured (FIG. 7). QCP had no effect in oocytes in which hSGLT1 but not hPEPT1 was expressed (data not shown). However, in oocytes expressing hSGLT1 plus hPEPT1, [^14C]AMG uptake was inhibited by about 50% when the oocytes had been incubated with QCP (FIG. 7). Incubation of oocytes expressing hSGLT1 plus hPEPT1 with PCQ had no effect on the expressed uptake of [^14C]AMG."}, "[5]": {"test_system": "hOCT2", "details": "intracellular AMG 0.1 mM, <0.01 mM or 10 mM", "quoted_text": "Corresponding measurements were performed in the presence of intracellular AMG concentrations of 0.1 mM, <0.01 mM or 10 mM."}, "[6]": {"test_system": "SGLT1", "details": "60 min pre-incubation, pH 6.5, 3 mM QCP, 0.1 mM D-glucose", "quoted_text": "Walls of small intestinal mucosa from mice are inserted into an Ussing chamber and the SGLT1 mediated transepitehila currents are measured that are induced by addition of 0.1 mM D-glucose to the mucosal side. The intestinal walls are pre-incubated for 60 min with buffer at pH 6.5 containing 0.1 mM D-glucose or with buffer at pH 6.5 containing 0.1 mM D-glucose plus 3 mM of QCP. After washing glucose-induced transepithelial currents are measured."}, "[7]": {"test_system": "sodium dependent amino acid transporters", "details": "60 min, pH 6.5, 3 mM QCP, 10 mM amino acids", "quoted_text": "Walls of small intestinal mucosa from mice are inserted into an Ussing chamber and transepitehial currents are measured that are induced by addition of 10 mM of various amino acids to the mucosal side. The intestinal walls are incubated for 60 min with buffer at pH 6.5 containing 0.1 mM D-glucose or with buffer at pH 6.5 containing 0.1 mM D-glucose plus 3 mM of QCP. After washing, amino acid induced transepithelial currents without and with preteatment with QCP are compared."}, "[8]": {"details": "10 mM QCP in drinking water pH 6.0, 2 months, standard chow or sugar low diet", "excerpt": "The body weight development with and without peptide treatment is compared over 2 months."}}, "note": "Like-named read-outs stand apart in the source and are kept apart here. Residues, ends and D or L forms follow the SMILES beside them.", "data": [{"compound": "C[C@H]1CCC/C=C/[C@@H]2C[C@H](O)C[C@H]2[C@H](O)/C=C/C(=O)O1", "note": "[brefeldin A]", "values": [{"measurement": "immunoreactivity of RS1 at the perinuclear compartment", "setting": "[1]", "value": "disappeared within several minutes"}]}, {"compound": "SVQPCQENQ [reverse nonapeptide of […], reference compound]", "values": [{"measurement": "inhibition of uptake of 50 μM [14C]AMG", "setting": "[2]; 50 nl/oocyte containing 1.5 mM peptide injected, 30 min", "value": "No inhibition"}]}, {"compound": "Glutamine-Cysteine-Proline [QCP]", "values": [{"measurement": "AMG uptake inhibition in the absence of BTXB", "setting": "[2]", "value": "inhibited"}, {"measurement": "AMG uptake inhibition in the presence of BTXB", "setting": "[2]", "value": "no significant inhibition"}, {"measurement": "inhibition of glucose uptake expressed by hSGLT1", "setting": "[2]", "value": "about 50%"}, {"measurement": "inhibition of hSGLT1 expressed AMG uptake after stimulation of protein kinase C", "setting": "[2]", "value": "not changed"}, {"measurement": "inhibition of hSGLT1 expressed AMG uptake with coexpressed dominant negative mutant of dynamin I", "setting": "[2]", "value": "not changed"}, {"measurement": "inhibition of hSGLT1 expressed uptake of AMG after 3 h", "setting": "[2]", "value": 60, "unit": "%"}, {"measurement": "inhibition of hSGLT1 expressed uptake of AMG after 5 h", "setting": "[2]", "value": "about 40%"}, {"measurement": "inhibition of hSGLT1 expressed uptake of AMG after 10 h", "setting": "[2]", "value": "20-30%"}, {"measurement": "inhibitory effect on expression of hSGLT1 when the exocytotic pathway was blocked", "setting": "[2]", "value": "could be prevented"}, {"measurement": "intracellular concentration of QCP at which 35-40% inhibition was obtained", "setting": "[2]", "value": "below 5 nM"}, {"measurement": "inhibition of hSGLT1 expressed AMG uptake", "setting": "[2]; 0.05 µM", "value": "35-40%"}, {"measurement": "inward currents in control oocytes not injected with hPEPT1 cRNA", "setting": "[3]", "value": "no inward currents"}, {"measurement": "inward currents in oocytes expressing hPEPT1", "setting": "[3]; pH 6.5", "value": "significant inward currents"}, {"measurement": "effect on AMG uptake in oocytes expressing hSGLT1 but not hPEPT1", "setting": "[4]", "value": "no effect"}, {"measurement": "inhibition of [14C]AMG uptake in oocytes expressing hSGLT1 plus hPEPT1", "setting": "[4]", "value": "about 50%"}, {"measurement": "hOCT2 expressed [14C]TEA uptake after injection", "setting": "[5]", "value": "appears not to be inhibited"}, {"measurement": "transepithelial glucose flux", "setting": "[6]", "value": "inhibits transepithelial glucose flux"}, {"measurement": "transepithelial flux of amino acids", "setting": "[7]", "value": "inhibits transepithelial flux of amino acids"}, {"measurement": "body weight", "setting": "[8]", "value": "body weight is reduced"}]}, {"compound": "NCC(=O)N[C@@H](CCC(N)=O)C(=O)O", "note": "[GC, glycylglutamine, reference compound] (H-Gly-Gln-OH)", "values": [{"measurement": "inward currents in oocytes expressing hPEPT1", "setting": "[3]; 5 mM peptide, pH 6.5, clamped to -40 mV", "value": "significant inward currents"}, {"measurement": "inward currents in control oocytes not injected with hPEPT1 cRNA", "setting": "[3]; data not shown", "value": "no inward currents"}]}, {"compound": "SDSDRIEP [Serine-Aspartic acid-Serine-Aspartic acid-Arginine-Isoleucine-Glutamic acid-Proline, octapeptide of hRS1, amino acid positions 43 to 50]", "values": [{"measurement": "inhibition of glucose uptake expressed by hSGLT1", "setting": "[2]", "value": "about 50%"}, {"measurement": "inhibition of hSGLT1 expressed AMG uptake after stimulation of protein kinase C", "setting": "[2]", "value": "not changed"}, {"measurement": "inhibition of hSGLT1 expressed AMG uptake with coexpressed dominant negative mutant of dynamin I", "setting": "[2]", "value": "not changed"}, {"measurement": "inhibitory effect on expression of hSGLT1 when the exocytotic pathway was blocked", "setting": "[2]", "value": "could be prevented"}]}]}
